Experimental data from paper PMC12345723, “Valorization of Coffee Silverskin via Integrated Biorefinery for the Production of Bioactive Peptides and Xylooligosaccharides: Functional and Prebiotic Properties” (Foods, 2025).
Marks after values point to notes of the source that are not given here.

Assays:
RAW 264.7 macrophages = details: cited from earlier work
Protocol: A peptide concentration of 200 µg/mL was selected based on preliminary cytotoxicity screening using RAW 264.7 macrophage cells, which confirmed that this dose was non-toxic under the experimental conditions.

[1] = ABTS radical scavenging assay; details: for Antioxidant Activity: ABTS, peptide 500 μM (table footnote), 30 min, absorbance 734 nm, mean ± SD, n = 3
Protocol: Antioxidant activity analysis was performed in the dark. DPPH, ABTS radical scavenging activity, and the ferric-reducing antioxidant power (FRAP) assay were determined following the method described by Jirarat et al. (2024). Concisely, samples were diluted using distilled water to the desired concentration. For the DPPH assay, a 500 μL sample was mixed with 500 μL of ethanolic DPPH solution (80 mg/L) for 60 min before measuring the absorbance at 517 nm. The ABTS radical (ABTS+) solution was prepared by incubating the mixture of 2.45 mM potassium persulfate solution and 7 mM ABTS solution (1:1, v/v) for 12–16 h. The deionized water was used for diluting the ABTS^+ solution to 0.70 ± 0.02 at an absorbance of […]. After that, the ABTS assay was performed by incubating a 50 μL sample with 850 μL of prepared ABTS^+ solution for 30 min, and the radical scavenging activity was determined by measuring the absorbance at 734 nm. Furthermore, the FRAP assay was performed by preparing the FRAP reagent, which consisted of 300 mM acetate buffer (pH 3.6), 20 mM FeCl3·6H2O, and 10 mM TPTZ in 40 mM HCl, mixed in a 10:1:1 volume ratio. Then, 100 μL of the sample was mixed with 900 μL the FRAP reagent and incubated for 30 min. […] The antioxidant capacity in all assays was expressed as micromoles of Trolox equivalents per liter (μmol TE/L) based on a Trolox standard curve.

RAW 264.7 cells = details: RAW 264.7, 24 h, 0–200 µg/mL, SRB assay
Protocol: The cytotoxicity of synthetic bioactive peptides was evaluated using the sulforhodamine B (SRB) colorimetric assay, as described by Vichai and Kirtikara. Briefly, RAW 264.7 murine macrophage cells were seeded at a 2 × 10^4 cells/well density in 96-well plates and incubated for 24 h. The cells were then treated with various concentrations of peptides (0–200 μg/mL) for an additional 24 h. After treatment, the cells were fixed with cold trichloroacetic acid (TCA) and stained with 0.4% (w/v) SRB in 1% (v/v) acetic acid. Unbound dye was removed by washing, and protein-bound SRB was solubilized using […] Tris base solution. Absorbance was measured at 520 nm using a microplate reader, and cell viability was calculated as a percentage relative to untreated control cells. Non-cytotoxic concentrations of the peptides were subsequently used for further investigation of their anti-inflammatory effects on LPS-induced nitric oxide (NO) production in RAW 264.7 cells.

[2] = system: Dipeptidyl Peptidase-IV (DPP-IV); details: peptide 5000 μM; Gly-Pro-p-nitroanilide, Tris-HCl pH 8.0, 37 °C, 60 min; absorbance 385 nm; mean ± SD, n = 3
Protocol: The DPP-IV inhibitory activity was determined using a modified method based on Lacroix and Li-Chan [22]. Briefly, the synthetic peptide was diluted in 100 mM Tris-HCl buffer (pH 8.0) to a final concentration of 5000 μM. The reaction mixture was prepared in a 1.5 mL microcentrifuge tube by combining 75 μL of Gly-Pro-p-nitroanilide (1.59 mM), 50 μL of Tris-HCl buffer (pH 8.0), and 25 μL of the peptide sample. The mixture was pre-incubated at 37 °C for 10 min. Following pre-incubation, 50 μL of DPP-IV enzyme solution (0.01 U/mL) was added, and the reaction was incubated at 37 °C for 60 min. The reaction was terminated by adding 300 μL of 99.8% ethanol. The absorbance of the reaction mixture was measured at 385 nm, and the DPP-IV inhibitory activity was calculated and expressed as a percentage of inhibition.
ACE inhibitory activity was assessed at a peptide concentration of 500 μM, while DPP-IV inhibitory activity and antioxidant activity (ABTS radical scavenging assay) were evaluated at a concentration of 5000 μM.

Substance	cytotoxic effects (RAW 264.7 macrophages)	Antioxidant Activity [1]	cytotoxicity (RAW 264.7 cells)	DPP-IV Inhibition [2]	ABTS radical scavenging activity ([1]; peptide 5000 μM as printed in the text) [%]
DYKKY [peptide derived from whey protein hydrolysates]	no cytotoxic effects				
FDYGKY [phenylalanine-aspartic acid-tyrosine-glycine-lysine-tyrosine]		50 ± 1 ^a %	non-toxic	0%	
FLGY [phenylalanine-leucine-glycine-tyrosine]		48 ± 1 ^a %	non-toxic	19 ± 1 ^a %	48
GTWY [peptide derived from whey protein hydrolysates]	no cytotoxic effects				
phenylalanine-tyrosine-aspartic acid-threonine-tyrosine-tyrosine [FYDTYY]			non-toxic	18 ± 3 ^a %	
